Patent US10738041B2, “Ferroportin inhibitors” (Vifor (International) AG, priority 2015, dated 2020)
Read-outs that look alike come from different tables or passages of the source.

Target: T1, human Fpn-GFP fusion (Homo sapiens, UniProt Q9NP59)
T1 construct: expressed in transfected cells; host or cells: HEK-293 cell line #354 (derivative of HEK-293 Tet-ON Advanced, Clontech)
T1 sequence (Q9NP59 1-571): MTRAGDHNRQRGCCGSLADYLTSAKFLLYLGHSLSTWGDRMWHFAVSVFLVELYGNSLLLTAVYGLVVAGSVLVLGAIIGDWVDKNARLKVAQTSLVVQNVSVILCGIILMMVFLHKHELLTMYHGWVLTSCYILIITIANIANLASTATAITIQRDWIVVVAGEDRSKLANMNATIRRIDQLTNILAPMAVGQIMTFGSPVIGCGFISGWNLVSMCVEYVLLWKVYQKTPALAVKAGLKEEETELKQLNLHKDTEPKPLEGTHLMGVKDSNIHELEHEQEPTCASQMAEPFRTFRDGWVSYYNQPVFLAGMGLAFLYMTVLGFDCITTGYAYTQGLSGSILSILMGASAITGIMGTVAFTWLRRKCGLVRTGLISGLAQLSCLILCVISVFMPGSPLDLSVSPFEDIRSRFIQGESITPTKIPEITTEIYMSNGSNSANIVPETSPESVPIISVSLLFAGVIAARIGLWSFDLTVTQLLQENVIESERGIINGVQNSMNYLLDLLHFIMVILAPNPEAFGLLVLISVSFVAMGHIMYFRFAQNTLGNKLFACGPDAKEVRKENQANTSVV
Assay: Inhibition of ferroportin mediated iron export activity in an iron response assay (BLAzer)
Assay type: cell-based
From the text: Intracellular iron levels are indirectly measured in this assay by monitoring the activity of a beta-lactamase (BLA) reporter gene fused to the human ferritin promoter and the associated iron regulatory element (IRE) contained within the 5′ untranslated region of the ferritin mRNA. Expression of ferroportin (Fpn) in such a cell line leads to iron efflux and lower iron levels as reflected by lower activity of the reporter gene. On the other hand, inhibition of Fpn-mediated iron efflux results in elevated cellular iron levels which is detected as increased reporter gene activity. Small molecular weight Fpn inhibitor compounds were tested for dose-dependent effects in this in vitro iron response assay as described below.
The HEK-293 cell line #354 was generated by stable integration of (i) a human Fpn-GFP fusion construct inserted in a derivative of the doxycycline-inducible pTRE-Tight-BI plasmid (Clontech, Cat. 631068) and (ii) a human ferritin promoter-BLA reporter gene into a derivative of the HEK-293 Tet-ON Advanced cell line (Clontech). […] After overnight incubation, 10 μl/well of dilution series of the test compounds were added in quadruplicates and plates were further incubated overnight at 37° C. with 5% CQ. Cells were washed 3 times with HBSS leaving 25 μl per well. BLA activity was detected by adding 5 μl/well of the GeneBlazer reagent CCF4-AM (Invitrogen, Cat. K1085) to the cells. After incubation of the plates in the dark at 18° C. for 60 min., blue and green fluorescence signals were measured in a Safre2 fluorescence plate reader (Tecan) with excitation at 410 nm and emissions at 458 nm (blue) and 522 nm (green). The ratio of blue/green fluorescence as a measure for BLA activity was calculated and EC50 values were determined with the calculated blue/green fluorescence ratios as described for the hepcidin internalization assay.

[1] = average of multiple measurements, HEK-293 cell line #354, read-out: BLAzer EC50

SMILES	EC50 [1] [µM]	EC50 [µM]
O=C(NCc1ncccc1F)c1cnn(CCNCCc2nc3ccccc3[nH]2)c1 [Example 111]	0.62	–
O=C(NCc1ncccc1F)c1csc(CCNCCc2nc3cc(F)ccc3[nH]2)n1 [Example 120]	1.6	–
O=C(NCc1ccccn1)c1csc(CCNCc2nc3ccccc3[nH]2)n1 [Example 12]	8.27	–
O=C(NCc1ncccc1F)c1coc(CCNCCc2nc3cc(F)ccc3[nH]2)n1 [Example 250]	0.46	–
O=C(NCc1ncccc1F)c1csc(CCN(CCc2nc3ccccc3[nH]2)CCc2nc3ccccc3[nH]2)n1 [Example 152]	0.17	–
O=C(NCc1ncccc1F)c1csc(CNCCc2nc3ccccc3[nH]2)n1 [Example 118]	2.69	–
O=C(NCc1ccccn1)c1coc(CCNCc2nc3ccccc3[nH]2)n1 [Example 137]	5.75	–
O=C(NCc1ncccc1F)c1ncn(CCNCc2nc3ccccc3[nH]2)n1 [Example 169]	8.23	–
O=C(NCc1cccnn1)c1nc(CCNCc2nc3ccccc3[nH]2)sc1Cl [Example 161]	17.2	–
CC[C@H](C)[C@@H]1NC(=O)[C@@H](NC(=O)[C@@H](NC(=O)[C@@H]2CCCN2C(=O)[C@H](Cc2ccccc2)NC(=O)[C@H](Cc2c[nH]cn2)NC(=O)[C@@H](NC(=O)[C@@H](N)CC(=O)O)[C@@H](C)O)[C@@H](C)CC)CSSC[C@@H](C(=O)N[C@@H](CCCCN)C(=O)N[C@H](C(=O)O)[C@@H](C)O)NC(=O)[C@@H]2CSSC[C@@H]3NC(=O)[C@@H]4CSSC[C@H](NC(=O)[C@H](Cc5ccccc5)NC1=O)C(=O)N[C@@H](CSSC[C@H](NC(=O)[C@H](CCCCN)NC(=O)[C@H](CO)NC(=O)[C@H](CCCNC(=N)N)NC(=O)[C@H](Cc1c[nH]cn1)NC3=O)C(=O)NCC(=O)N[C@@H](CCSC)C(=O)N2)C(=O)NCC(=O)N4 [hepcidin, reference compound]	–	0.096 ± 0.063
O=C(NCc1ncccc1F)c1coc(CCNCCc2nc3c(F)cc(F)cc3[nH]2)n1 [Example 249]	1.55	–
O=C(NCc1ncccc1Cl)c1csc(CCNCc2nc3ccccc3[nH]2)n1 [Example 82]	0.76	–
O=C(NC1CCc2cccnc21)c1csc(CCNCCc2nc3ccccc3[nH]2)n1 (stereo not drawn) [Example 158]	0.62	–
O=C(NCc1cccnn1)c1csc(CCNCCc2nc3ccccc3[nH]2)n1 [Example 122]	4.33	–
O=C(NC1CCc2cccnc21)c1csc(CCNCc2nc3ccccc3[nH]2)n1 (stereo not drawn) [Example 39]	2.9	–
O=C(NCc1ncccc1F)c1nc(CCNCCc2nc3ccccc3[nH]2)sc1Cl [Example 154]	0.74	–
O=C(NCc1ncccc1F)c1coc(CCNCc2nc3ccccc3[nH]2)n1 [Example 126]	1.26	–
O=C(NCc1ncc(F)cc1F)c1csc(CCNCCc2nc3ccccc3[nH]2)n1 [Example 116]	2.79	–

SMILES	EC50 [1] [µM]	EC50 [µM]
O=C(NCc1ncccc1F)c1coc(C2CN(CCc3nc4ccccc4[nH]3)C2)n1 [Example 208]	0.5	–
O=C(NCc1ncccc1F)c1nc(CCNCc2nc3ccccc3[nH]2)sc1Cl [Example 151]	0.72	–
O=C(NCc1ncccc1F)c1csc(CCCNCc2nc3ccccc3[nH]2)n1 [Example 134]	4.09	–
O=C(NCc1ncccc1Cl)c1cnn(CCNCc2nc3ccccc3[nH]2)c1 [Example 138]	1.72	–
O=C(NCc1ncccc1F)c1cncc(C2CN(CCc3nc4ccccc4[nH]3)C2)c1 [compound 237]	2.46	–
O=C(NCc1ncccc1Cl)c1coc(CCNCc2nc3ccccc3[nH]2)n1 [Example 141]	1.11	–
O=C(NCc1ncccc1F)c1ncn(CCNCCc2nc3ccccc3[nH]2)n1 [Example 181]	3.72	–
O=C(NCc1ncccc1F)c1csc(CCNCCc2nc3c(F)cccc3[nH]2)n1 [Example 243]	1.4	–
O=C(NCc1ncccc1F)c1coc(CCNCCc2nc3c(F)cccc3[nH]2)n1 [Example 228]	2.12	–
O=C(NCc1ncccc1F)c1coc(CCNCCc2nc3ccccc3[nH]2)n1 [Example 127]	0.42	–
O=C(NCc1ncccc1F)c1cccc(CNCCc2nc3ccccc3[nH]2)c1 [Example 224]	8.2	–
O=C(NCc1ncccc1F)c1csc(CCNCC(F)(F)c2nc3ccccc3[nH]2)n1 [Example 196]	12.7	–
Cc1oc(CCNCCc2nc3ccccc3[nH]2)nc1C(=O)NCc1ncccc1F [Example 230]	6.38	–
O=C(NCc1ncccc1F)c1coc(C2CN(CCc3nc4c(F)cccc4[nH]3)C2)n1 [Example 239]	0.88	–
O=C(NCc1ncccc1Cl)c1cnn(CCNCCc2nc3ccccc3[nH]2)c1 [Example 144]	0.47	–
Cc1cnccc1CNC(=O)c1csc(CCNCc2nc3ccccc3[nH]2)n1 [Example 90]	4.03	–
O=C(NCc1ncccc1F)c1csc(CCNCCc2nc3ccccc3[nH]2)n1 [Example 94]	0.53	–
O=C(NCc1ncccc1F)c1coc(CCNCCc2nc3c(Cl)cccc3[nH]2)n1 [Example 226]	2.34	–
